Measurements reported in PubChem BioAssay (NCI).
“And” between values parts separate entries of the source, which are not always exact repeats. Equal values may be shown once.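 At the GI50, growth is halved. TGI: concentration producing complete growth inhibition.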

Key:
Experiment in all cases: DTP human tumour cell line panel, 384-well format
786-0 renal = test system: 786-0 renal
A498 renal = test system: A498 renal
A549 NSCLC = test system: A549 NSCLC
ACHN renal = test system: ACHN renal
BT-549 breast = test system: BT-549 breast
CAKI-1 renal = test system: CAKI-1 renal
COLO 205 colon = test system: COLO 205 colon
DU-145 prostate = test system: DU-145 prostate
EKVX NSCLC = test system: EKVX NSCLC
HCC-2998 colon = test system: HCC-2998 colon
HCT-116 colon = test system: HCT-116 colon
HCT-15 colon = test system: HCT-15 colon
HL-60(TB) leukemia = test system: HL-60(TB) leukemia
HOP-62 NSCLC = test system: HOP-62 NSCLC
HOP-92 NSCLC = test system: HOP-92 NSCLC
HS 578T breast = test system: HS 578T breast
HT29 colon = test system: HT29 colon
IGROV1 ovarian = test system: IGROV1 ovarian
K-562 leukemia = test system: K-562 leukemia
KM12 colon = test system: KM12 colon
LOX IMVI melanoma = test system: LOX IMVI melanoma
M14 melanoma = test system: M14 melanoma
MALME-3M melanoma = test system: MALME-3M melanoma
MCF7 breast = test system: MCF7 breast
MDA-MB-231 breast = test system: MDA-MB-231 breast
MDA-MB-435 melanoma = test system: MDA-MB-435 melanoma
MDA-MB-468 breast = test system: MDA-MB-468 breast
MOLT-4 leukemia = test system: MOLT-4 leukemia
NCI-H226 lung = test system: NCI-H226 lung
NCI-H23 lung = test system: NCI-H23 lung
NCI-H322M lung = test system: NCI-H322M lung
NCI-H460 NSCLC = test system: NCI-H460 NSCLC
NCI-H522 lung = test system: NCI-H522 lung
NCI/ADR-RES ovarian = test system: NCI/ADR-RES ovarian
OVCAR-3 ovarian = test system: OVCAR-3 ovarian
OVCAR-4 ovarian = test system: OVCAR-4 ovarian
OVCAR-5 ovarian = test system: OVCAR-5 ovarian
OVCAR-8 ovarian = test system: OVCAR-8 ovarian
PC-3 prostate = test system: PC-3 prostate
RPMI-8226 leukemia = test system: RPMI-8226 leukemia
RXF 393 renal = test system: RXF 393 renal
SF-268 CNS = test system: SF-268 CNS
SF-295 CNS = test system: SF-295 CNS
SF-539 CNS = test system: SF-539 CNS
SK-MEL-2 melanoma = test system: SK-MEL-2 melanoma
SK-MEL-28 melanoma = test system: SK-MEL-28 melanoma
SK-MEL-5 melanoma = test system: SK-MEL-5 melanoma
SK-OV-3 ovarian = test system: SK-OV-3 ovarian
SN12C renal = test system: SN12C renal
SNB-19 CNS = test system: SNB-19 CNS
SNB-75 CNS = test system: SNB-75 CNS
SR leukemia = test system: SR leukemia
SW-620 colon = test system: SW-620 colon
T-47D breast = test system: T-47D breast
TK-10 renal = test system: TK-10 renal
U251 glioblastoma = test system: U251 glioblastoma
UACC-257 melanoma = test system: UACC-257 melanoma
UACC-62 melanoma = test system: UACC-62 melanoma
UO-31 renal = test system: UO-31 renal

COCCNCCc1cccc(Nc2ncc3c(n2)-c2ccccc2C(c2ccccc2F)C3)c1 (stereo not drawn)
GI50 ([…]-0 renal): 1250 nM and 1500 nM
TGI (786-0 renal): 2520 nM and 2850 nM
GI50 (A498 renal): 1290 nM and 1430 nM
TGI (A498 renal): 2570 nM and 2760 nM
GI50 (A549 NSCLC): 1780 nM and 1660 nM
TGI (A549 NSCLC): 3.21 µM and 3.07 µM
GI50 (ACHN renal): 1540 nM and 1300 nM
TGI (ACHN renal): 2890 nM and 2600 nM
GI50 (BT-549 breast): 1340 nM and 1690 nM
TGI (BT-549 breast): 2630 nM and 3080 nM
GI50 (CAKI-1 renal): 1310 nM and 1000 nM
TGI (CAKI-1 renal): 2610 nM and 2350 nM
GI50 (COLO 205 colon): 1760 nM and 1740 nM
TGI (COLO 205 colon): 3.17 µM and 3.15 µM
GI50 (DU-145 prostate): 1680 nM and 1760 nM
TGI (DU-145 prostate): 3.07 µM and 3.17 µM
GI50 (EKVX NSCLC): 1550 nM
TGI (EKVX NSCLC): 2910 nM
GI50 (HCC-2998 colon): 1190 nM and 1540 nM
TGI (HCC-2998 colon): 2440 nM and 2900 nM
GI50 (HCT-116 colon): 1490 nM and 1740 nM
TGI (HCT-116 colon): 2.86 µM and 3.17 µM
GI50 (HCT-15 colon): 1200 nM and 1300 nM
TGI (HCT-15 colon): 2480 nM and 2620 nM
GI50 (HL-60(TB) leukemia): 563 nM and 1950 nM
TGI (HL-60(TB) leukemia): 1050 nM and 3390 nM
GI50 (HOP-62 NSCLC): 1780 nM
TGI (HOP-62 NSCLC): 3.18 µM and 3.19 µM
GI50 (HOP-92 NSCLC): 1550 nM and 1610 nM
TGI (HOP-92 NSCLC): 2900 nM and 2970 nM
GI50 (HS 578T breast): 1300 nM and 1590 nM
TGI (HS 578T breast): 2570 nM and 2940 nM
GI50 (HT29 colon): 1520 nM and 1580 nM
TGI (HT29 colon): 2890 nM and 2980 nM
GI50 (IGROV1 ovarian): 1160 nM and 1190 nM
TGI (IGROV1 ovarian): 2390 nM and 2430 nM
GI50 (K-562 leukemia): 186 nM and 75.8 nM
TGI (K-562 leukemia): 402 nM and 214 nM
GI50 (KM12 colon): 1560 nM and 1740 nM
TGI (KM12 colon): 2.92 µM and 3.15 µM
GI50 (LOX IMVI melanoma): 1360 nM and 1490 nM
TGI (LOX IMVI melanoma): 2650 nM and 2830 nM
GI50 (M14 melanoma): 1850 nM and 2140 nM
TGI (M14 melanoma): 3.26 µM and 3.61 µM
GI50 (MALME-3M melanoma): 1900 nM and 2030 nM
TGI (MALME-3M melanoma): 3.31 µM and 3.47 µM
GI50 (MCF7 breast): 1280 nM and 1450 nM
TGI (MCF7 breast): 2590 nM and 2820 nM
GI50 (MDA-MB-231 breast): 1630 nM and 1430 nM
TGI (MDA-MB-231 breast): 3000 nM and 2750 nM
GI50 (MDA-MB-435 melanoma): 1880 nM and 1910 nM
TGI (MDA-MB-435 melanoma): 3.3 µM and 3.34 µM
GI50 (MDA-MB-468 breast): 2040 nM and 1950 nM
TGI (MDA-MB-468 breast): 3.47 µM and 3.37 µM
GI50 (MOLT-4 leukemia): 670 nM and 543 nM
TGI (MOLT-4 leukemia): 1950 nM and 1790 nM
GI50 (NCI-H226 lung): 1220 nM and 1500 nM
TGI (NCI-H226 lung): 2470 nM and 2840 nM
GI50 (NCI-H23 lung): 1640 nM and 1740 nM
TGI (NCI-H23 lung): 3.02 µM and 3.13 µM
GI50 (NCI-H322M lung): 1720 nM and 1700 nM
TGI (NCI-H322M lung): 3.11 µM and 3.09 µM
GI50 (NCI-H460 NSCLC): 657 nM and 1300 nM
TGI (NCI-H460 NSCLC): 1860 nM and 2650 nM
GI50 (NCI-H522 lung): 1670 nM and 1320 nM
TGI (NCI-H522 lung): 3050 nM and 2610 nM
GI50 (NCI/ADR-RES ovarian): 1800 nM and 1890 nM
TGI (NCI/ADR-RES ovarian): 3.21 µM and 3.38 µM
GI50 (OVCAR-3 ovarian): 1330 nM and 1370 nM
TGI (OVCAR-3 ovarian): 2630 nM and 2680 nM
GI50 (OVCAR-4 ovarian): 1330 nM and 1340 nM
TGI (OVCAR-4 ovarian): 2630 nM and 2640 nM
GI50 (OVCAR-5 ovarian): 1790 nM and 1800 nM
TGI (OVCAR-5 ovarian): 3.2 µM and 3.23 µM
GI50 (OVCAR-8 ovarian): 1800 nM and 1680 nM
TGI (OVCAR-8 ovarian): 3.22 µM and 3.08 µM
GI50 (PC-3 prostate): 1590 nM and 1400 nM
TGI (PC-3 prostate): 2960 nM and 2720 nM
GI50 (RPMI-8226 leukemia): 683 nM and 701 nM
TGI (RPMI-8226 leukemia): 1860 nM and 1940 nM
GI50 (RXF 393 renal): 612 nM and 1260 nM
TGI (RXF 393 renal): 1840 nM and 2520 nM
GI50 (SF-268 CNS): 1600 nM and 1650 nM
TGI (SF-268 CNS): 2960 nM and 3030 nM
GI50 (SF-295 CNS): 1740 nM and 1820 nM
TGI (SF-295 CNS): 3.14 µM and 3.23 µM
GI50 (SF-539 CNS): 1040 nM and 1550 nM
TGI (SF-539 CNS): 2320 nM and 2910 nM
GI50 (SK-MEL-2 melanoma): 1360 nM and 1410 nM
TGI (SK-MEL-2 melanoma): 2650 nM and 2730 nM
GI50 (SK-MEL-28 melanoma): 1760 nM and 1830 nM
TGI (SK-MEL-28 melanoma): 3.15 µM and 3.24 µM
GI50 (SK-MEL-5 melanoma): 1890 nM and 1860 nM
TGI (SK-MEL-5 melanoma): 3.31 µM and 3.28 µM
GI50 (SK-OV-3 ovarian): 1350 nM and 1420 nM
TGI (SK-OV-3 ovarian): 2650 nM and 2760 nM
GI50 (SN12C renal): 1310 nM and 906 nM
TGI (SN12C renal): 2600 nM and 2340 nM
GI50 (SNB-19 CNS): 1920 nM and 1930 nM
TGI (SNB-19 CNS): 3.35 µM and 3.37 µM
GI50 (SNB-75 CNS): 1430 nM and 1540 nM
TGI (SNB-75 CNS): 2750 nM and 2880 nM
GI50 (SR leukemia): 255 nM and 168 nM
TGI (SR leukemia): 421 nM and 358 nM
GI50 (SW-620 colon): 1830 nM and 2290 nM
TGI (SW-620 colon): 3.24 µM and 3.77 µM
GI50 (T-47D breast): 1610 nM and 1710 nM
TGI (T-47D breast): 2.97 µM and 3.1 µM
GI50 (TK-10 renal): 1680 nM and 1620 nM
TGI (TK-10 renal): 3.06 µM and 2.99 µM
GI50 (U251 glioblastoma): 1670 nM and 1980 nM
TGI (U251 glioblastoma): 3.07 µM and 3.44 µM
GI50 (UACC-257 melanoma): 1540 nM and 1670 nM
TGI (UACC-257 melanoma): 2900 nM and 3060 nM
GI50 (UACC-62 melanoma): 1770 nM and 1650 nM
TGI (UACC-62 melanoma): 3.18 µM and 3.04 µM
GI50 (UO-31 renal): 1780 nM and 1740 nM
TGI (UO-31 renal): 3.18 µM and 3.14 µM
